Results taken from patent publication US11090308B2, “Methods of treating liver disorders or lipid disorders with a THR-beta agonist” (Madrigal Pharmaceuticals, Inc., priority 2016, dated 2021).
Read-outs that look alike come from different tables or passages of the source.

Experiments:
in vitro = in vitro ADME, all species; details: plasma
Excerpt: (§1) The following studies have been conducted: (a) in vitro drug protein binding, transporter (organic anion transporting polypeptide [OATP], P-glycoprotein [P-gp], breast cancer-related protein [BCRP], and multiple drug resistance protein 1 [MDR1]), and cytochrome P-450 enzyme assays to investigate absorption, distribution, and excretion; (b) in vivo MGL-3196 rat and dog oral PK and bioavailability studies; (c) in vivo ^14C-MGL-3196 rat and dog oral pharmacokinetics, absorption, excretion, and tissue distribution by quantitative whole-body autoradiography (QWBA) studies; and (d) liver disposition of MGL-3196 using an in vitro sandwiched hepatocyte model system (B-CLEAR® technology) in dog (SCDH) and human (SCHH) hepatocytes.

CYP3A4 = CYP3A4 (Homo sapiens, UniProt P08684); assay: In vitro Cytochrome P-450 enzyme assay, CYP3A4; type: in vitro ADME
Sequence of CYP3A4 (P08684 2-503 limits assumed): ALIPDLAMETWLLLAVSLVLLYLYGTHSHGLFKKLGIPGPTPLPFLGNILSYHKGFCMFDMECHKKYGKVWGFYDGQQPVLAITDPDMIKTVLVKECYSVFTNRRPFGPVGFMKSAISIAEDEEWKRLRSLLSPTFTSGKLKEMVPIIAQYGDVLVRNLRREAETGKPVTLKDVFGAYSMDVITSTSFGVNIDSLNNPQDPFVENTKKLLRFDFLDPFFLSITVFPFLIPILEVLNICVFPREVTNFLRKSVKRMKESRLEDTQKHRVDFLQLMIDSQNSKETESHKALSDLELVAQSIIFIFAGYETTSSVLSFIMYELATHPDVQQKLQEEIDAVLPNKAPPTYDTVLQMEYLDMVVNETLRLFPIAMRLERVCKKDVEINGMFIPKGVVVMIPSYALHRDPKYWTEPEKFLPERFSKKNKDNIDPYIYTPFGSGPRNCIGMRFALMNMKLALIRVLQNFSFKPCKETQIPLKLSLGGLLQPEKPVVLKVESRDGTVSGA
Excerpt: as §1

BSEP = BSEP (Homo sapiens, UniProt O95342); assay: In vitro drug transporter assay, BSEP; type: in vitro ADME; details: BSEP-mediated transport of TCA; read-out: Inhibitor of: BSEP, IC50
Sequence of BSEP (O95342 whole entry, species assumed): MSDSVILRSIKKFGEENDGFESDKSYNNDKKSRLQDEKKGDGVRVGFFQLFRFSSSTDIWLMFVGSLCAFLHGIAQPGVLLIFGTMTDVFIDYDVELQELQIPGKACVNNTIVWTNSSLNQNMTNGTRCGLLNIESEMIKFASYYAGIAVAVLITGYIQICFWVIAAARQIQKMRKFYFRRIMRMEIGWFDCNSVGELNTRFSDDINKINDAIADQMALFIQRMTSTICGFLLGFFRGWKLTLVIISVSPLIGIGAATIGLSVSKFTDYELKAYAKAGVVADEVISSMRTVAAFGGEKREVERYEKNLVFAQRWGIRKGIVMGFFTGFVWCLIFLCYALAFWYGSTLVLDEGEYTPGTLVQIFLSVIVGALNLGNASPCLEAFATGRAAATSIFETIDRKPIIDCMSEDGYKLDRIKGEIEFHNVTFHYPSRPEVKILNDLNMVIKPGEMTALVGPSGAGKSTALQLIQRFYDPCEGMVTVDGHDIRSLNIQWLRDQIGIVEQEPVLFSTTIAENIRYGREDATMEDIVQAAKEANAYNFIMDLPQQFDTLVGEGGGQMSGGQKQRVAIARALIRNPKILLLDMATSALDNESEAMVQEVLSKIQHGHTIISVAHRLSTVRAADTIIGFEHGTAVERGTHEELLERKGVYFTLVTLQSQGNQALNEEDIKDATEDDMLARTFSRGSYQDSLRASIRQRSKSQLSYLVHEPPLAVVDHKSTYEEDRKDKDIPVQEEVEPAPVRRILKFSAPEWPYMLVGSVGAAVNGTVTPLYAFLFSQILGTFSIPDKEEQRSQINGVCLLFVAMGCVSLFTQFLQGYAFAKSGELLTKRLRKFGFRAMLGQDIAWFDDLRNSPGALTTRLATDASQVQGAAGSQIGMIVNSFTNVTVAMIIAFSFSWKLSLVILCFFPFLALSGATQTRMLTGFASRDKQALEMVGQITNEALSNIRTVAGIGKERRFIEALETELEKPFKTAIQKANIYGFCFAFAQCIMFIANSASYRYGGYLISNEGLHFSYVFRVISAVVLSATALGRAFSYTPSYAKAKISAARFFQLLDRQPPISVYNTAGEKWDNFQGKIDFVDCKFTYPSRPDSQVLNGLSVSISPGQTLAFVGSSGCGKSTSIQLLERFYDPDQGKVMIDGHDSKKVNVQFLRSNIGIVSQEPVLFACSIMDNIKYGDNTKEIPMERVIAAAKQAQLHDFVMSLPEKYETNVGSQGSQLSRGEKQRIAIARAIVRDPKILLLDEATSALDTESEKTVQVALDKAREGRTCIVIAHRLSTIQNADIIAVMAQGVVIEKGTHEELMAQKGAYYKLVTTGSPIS

MDR1 (P-gp) = MDR1 (P-gp) (Homo sapiens, UniProt P08183); assay: In vitro drug transporter assay, MDR1 (P-gp); type: in vitro ADME
Sequence of MDR1 (P-gp) (P08183 whole entry, species assumed): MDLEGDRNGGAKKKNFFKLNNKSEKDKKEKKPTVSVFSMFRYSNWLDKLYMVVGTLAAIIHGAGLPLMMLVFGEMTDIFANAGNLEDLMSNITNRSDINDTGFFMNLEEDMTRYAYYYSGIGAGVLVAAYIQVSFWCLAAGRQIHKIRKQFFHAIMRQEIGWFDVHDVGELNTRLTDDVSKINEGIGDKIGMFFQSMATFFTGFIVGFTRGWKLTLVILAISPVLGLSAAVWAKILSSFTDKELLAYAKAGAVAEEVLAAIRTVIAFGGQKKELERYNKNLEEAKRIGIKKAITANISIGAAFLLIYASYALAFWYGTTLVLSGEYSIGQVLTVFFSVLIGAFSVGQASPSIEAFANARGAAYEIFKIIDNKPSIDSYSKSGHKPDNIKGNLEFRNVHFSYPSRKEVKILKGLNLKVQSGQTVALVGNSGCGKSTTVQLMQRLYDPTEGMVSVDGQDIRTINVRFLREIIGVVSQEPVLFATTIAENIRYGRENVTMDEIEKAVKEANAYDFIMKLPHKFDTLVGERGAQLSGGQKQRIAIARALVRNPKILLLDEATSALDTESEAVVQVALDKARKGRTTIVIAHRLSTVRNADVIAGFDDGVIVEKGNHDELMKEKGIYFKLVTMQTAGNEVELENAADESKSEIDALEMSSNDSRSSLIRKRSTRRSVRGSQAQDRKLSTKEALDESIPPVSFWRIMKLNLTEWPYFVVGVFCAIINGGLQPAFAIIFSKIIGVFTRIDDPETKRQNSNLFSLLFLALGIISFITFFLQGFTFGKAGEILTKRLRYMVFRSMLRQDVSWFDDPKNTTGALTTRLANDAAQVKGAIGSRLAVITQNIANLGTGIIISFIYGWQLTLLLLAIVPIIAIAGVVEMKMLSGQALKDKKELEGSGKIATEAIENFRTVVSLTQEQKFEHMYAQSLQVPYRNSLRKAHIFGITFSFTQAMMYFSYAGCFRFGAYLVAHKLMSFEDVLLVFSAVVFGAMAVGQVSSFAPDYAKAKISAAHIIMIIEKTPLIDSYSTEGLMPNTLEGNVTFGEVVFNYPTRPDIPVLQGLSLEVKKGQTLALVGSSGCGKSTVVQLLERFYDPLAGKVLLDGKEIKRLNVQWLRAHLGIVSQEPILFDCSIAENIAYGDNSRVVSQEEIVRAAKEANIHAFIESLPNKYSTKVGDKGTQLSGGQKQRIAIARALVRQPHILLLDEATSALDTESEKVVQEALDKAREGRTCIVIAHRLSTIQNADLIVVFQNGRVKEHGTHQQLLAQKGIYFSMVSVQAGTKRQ
Excerpt: as §1

MRP2 = MRP2 (Homo sapiens, UniProt Q92887); assay: In vitro drug transporter assay, MRP2; type: in vitro ADME
Sequence of MRP2 (Q92887 whole entry, species assumed): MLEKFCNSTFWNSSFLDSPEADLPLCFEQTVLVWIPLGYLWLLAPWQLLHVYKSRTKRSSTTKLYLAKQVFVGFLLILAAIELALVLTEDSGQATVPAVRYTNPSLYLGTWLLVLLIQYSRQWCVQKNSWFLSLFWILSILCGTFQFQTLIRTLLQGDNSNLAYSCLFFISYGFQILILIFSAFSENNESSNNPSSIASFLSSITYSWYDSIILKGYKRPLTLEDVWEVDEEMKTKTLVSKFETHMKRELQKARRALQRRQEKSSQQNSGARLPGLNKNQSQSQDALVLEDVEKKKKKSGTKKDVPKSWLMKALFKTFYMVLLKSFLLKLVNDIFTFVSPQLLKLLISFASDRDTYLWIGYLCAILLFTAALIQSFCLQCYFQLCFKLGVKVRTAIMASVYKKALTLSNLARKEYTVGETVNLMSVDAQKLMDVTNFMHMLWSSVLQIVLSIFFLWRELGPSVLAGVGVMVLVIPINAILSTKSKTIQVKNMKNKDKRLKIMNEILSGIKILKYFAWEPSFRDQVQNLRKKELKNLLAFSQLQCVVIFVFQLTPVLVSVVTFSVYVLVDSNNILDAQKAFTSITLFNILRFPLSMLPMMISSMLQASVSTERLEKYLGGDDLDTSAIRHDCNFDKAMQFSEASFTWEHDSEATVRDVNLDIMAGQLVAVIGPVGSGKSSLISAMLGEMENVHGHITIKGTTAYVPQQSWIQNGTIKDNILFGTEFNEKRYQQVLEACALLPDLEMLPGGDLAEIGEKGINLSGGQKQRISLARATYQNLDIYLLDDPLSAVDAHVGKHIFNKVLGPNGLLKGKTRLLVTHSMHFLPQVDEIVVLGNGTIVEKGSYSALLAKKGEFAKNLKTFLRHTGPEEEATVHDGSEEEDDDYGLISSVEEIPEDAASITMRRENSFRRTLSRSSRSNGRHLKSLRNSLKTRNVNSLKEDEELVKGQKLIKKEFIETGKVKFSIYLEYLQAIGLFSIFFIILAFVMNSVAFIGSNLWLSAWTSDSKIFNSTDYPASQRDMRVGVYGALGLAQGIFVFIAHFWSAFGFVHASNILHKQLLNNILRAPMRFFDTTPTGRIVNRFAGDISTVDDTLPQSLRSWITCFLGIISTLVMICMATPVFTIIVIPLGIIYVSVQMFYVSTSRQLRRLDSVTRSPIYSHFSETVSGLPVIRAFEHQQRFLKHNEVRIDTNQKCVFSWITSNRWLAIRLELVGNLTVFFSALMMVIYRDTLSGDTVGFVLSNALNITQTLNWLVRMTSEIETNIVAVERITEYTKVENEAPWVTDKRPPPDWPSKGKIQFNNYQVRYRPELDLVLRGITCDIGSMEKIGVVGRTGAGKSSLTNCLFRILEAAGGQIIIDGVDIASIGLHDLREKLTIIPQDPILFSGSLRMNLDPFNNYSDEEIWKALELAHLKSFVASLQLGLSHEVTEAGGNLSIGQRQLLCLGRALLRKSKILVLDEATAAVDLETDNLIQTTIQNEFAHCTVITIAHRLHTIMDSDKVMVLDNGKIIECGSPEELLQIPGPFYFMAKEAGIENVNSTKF

OCT2 = target: T1, OCT2 (Homo sapiens, UniProt O15244); assay: In vitro drug transporter assay, OCT2; type: in vitro ADME
T1 sequence (O15244 1-555): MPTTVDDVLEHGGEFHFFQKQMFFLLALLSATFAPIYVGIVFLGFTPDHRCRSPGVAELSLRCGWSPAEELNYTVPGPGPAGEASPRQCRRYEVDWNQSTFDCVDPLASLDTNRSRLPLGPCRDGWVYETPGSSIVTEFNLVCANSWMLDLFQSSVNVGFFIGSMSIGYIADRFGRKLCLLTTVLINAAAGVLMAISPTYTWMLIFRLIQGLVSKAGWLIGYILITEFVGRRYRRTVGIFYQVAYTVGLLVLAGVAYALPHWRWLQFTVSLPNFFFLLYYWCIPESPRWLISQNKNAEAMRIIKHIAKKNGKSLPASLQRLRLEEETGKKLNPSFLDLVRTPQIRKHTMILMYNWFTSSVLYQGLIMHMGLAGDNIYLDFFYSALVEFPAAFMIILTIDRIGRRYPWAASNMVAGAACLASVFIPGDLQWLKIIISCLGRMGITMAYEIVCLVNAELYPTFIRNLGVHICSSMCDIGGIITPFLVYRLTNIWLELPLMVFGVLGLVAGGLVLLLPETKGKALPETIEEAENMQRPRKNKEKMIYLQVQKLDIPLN

CYP2A6 = target: T2, CYP2A6 (Homo sapiens, UniProt P11509); assay: In vitro Cytochrome P-450 enzyme assay, CYP2A6; type: in vitro ADME
T2 sequence (P11509 1-494): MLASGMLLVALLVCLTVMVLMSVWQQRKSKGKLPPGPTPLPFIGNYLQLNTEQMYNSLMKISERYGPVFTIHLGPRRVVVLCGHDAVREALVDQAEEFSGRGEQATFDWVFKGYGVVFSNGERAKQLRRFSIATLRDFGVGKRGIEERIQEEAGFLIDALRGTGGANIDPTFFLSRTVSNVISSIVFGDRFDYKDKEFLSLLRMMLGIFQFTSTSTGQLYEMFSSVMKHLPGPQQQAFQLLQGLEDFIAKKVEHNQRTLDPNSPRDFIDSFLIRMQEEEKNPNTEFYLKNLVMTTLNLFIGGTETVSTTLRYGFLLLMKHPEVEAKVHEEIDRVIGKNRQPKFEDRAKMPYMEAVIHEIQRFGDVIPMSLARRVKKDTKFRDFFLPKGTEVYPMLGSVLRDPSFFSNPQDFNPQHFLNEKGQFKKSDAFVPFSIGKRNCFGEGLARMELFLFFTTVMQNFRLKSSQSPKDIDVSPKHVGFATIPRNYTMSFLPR
Excerpt: as §1

[1] = Rat oral PK and bioavailability studies; type: in vivo
Excerpt: as §1
(§2) Rat & Dog PK/Bioavailability Studies were also performed.

[2] = Dog oral PK and bioavailability studies; type: in vivo
Excerpt: as §1, §2

[3] = Dog liver, bile, plasma distribution; type: in vivo; details: for concentration at 4 h: Beagle, po; for concentration at 4 h / Concentration in Bile: 4 hours after single daily 100 mg/kg oral doses for four days
Excerpt: Tables 2A-2B show ^14C-MGL-3196 dog ADME study design.

Compound: CC(C)c1cc(Oc2c(Cl)cc(-n3nc(C#N)c(=O)[nH]c3=O)cc2Cl)n[nH]c1=O [MGL-3196, 2-(3,5-dichloro-4-((5-isopropyl-6-oxo-1,6-dihydropyridazin-3-yl)oxy)phenyl)-3,5-dioxo-2,3,4,5-tetrahydro-1,2,4-triazine-6-carbonitrile]
- fraction unbound (in vitro): < 0.01
- Inhibitor of: CYP3A4 (CYP3A4): CYP3A4 (weak inhibitor)
- IC50 (BSEP): 34.7 µM
- Inhibitor of: MDR1 (MDR1 (P-gp)): not an inhibitor
- Substrate for: MDR1 (P-gp) (MDR1 (P-gp)): weak substrate
- Inhibitor of: MRP2 (MRP2): not an inhibitor
- Substrate for: MRP2 (MRP2): not a substrate
- Inhibitor of: OCT2 (OCT2): not an inhibitor
- Inhibitor of: CYP2A6 (CYP2A6): not an inhibitor
- bioavailability ([1]; rat, plasma, po): 45 to 98%
- half-life ([1]; rat, plasma, rats, oral dosing, read-out: mean elimination half-life): 2.5 to 7 h
- time of maximum plasma concentrations ([1]; rats, oral dosing): 2 to 6 h
- bioavailability ([2]; dog, plasma, po): 11 to 135%
- half-life ([2]; dog, plasma, dogs, oral dosing, read-out: mean elimination half-life): 3 to 5.5 h
- time of maximum plasma concentrations ([2]; dogs, oral dosing): 1 to 8 h
- concentration at 4 h ([3]; dog, hepatic portal vein plasma, 100 mg/kg, Dog 1, read-out: Concentration in Hepatic Portal Vein Plasma): 18.8 µg/mL
- concentration at 4 h ([3]; dog, hepatic portal vein plasma, 100 mg/kg, Dog 2, read-out: Concentration in Hepatic Portal Vein Plasma): 86.6 µg/mL
- concentration at 4 h ([3]; dog, hepatic portal vein plasma, 100 mg/kg, Dog 3, read-out: Concentration in Hepatic Portal Vein Plasma): 98.6 µg/mL
- concentration at 4 h ([3]; dog, hepatic portal vein plasma, 100 mg/kg, Mean, read-out: Concentration in Hepatic Portal Vein Plasma): 68 µg/mL
- concentration at 4 h ([3]; dog, liver, 100 mg/kg, Dog 1, read-out: Concentration in Liver): 129000 ng/g
- concentration at 4 h ([3]; dog, liver, 100 mg/kg, Dog 2, read-out: Concentration in Liver): 319000 ng/g
- concentration at 4 h ([3]; dog, liver, 100 mg/kg, Dog 3, read-out: Concentration in Liver): 210000 ng/g
- concentration at 4 h ([3]; dog, liver, 100 mg/kg, Mean, read-out: Concentration in Liver): 219000 ng/g
- concentration at 4 h ([3]; dog, systemic plasma, 100 mg/kg, Dog 1, read-out: Concentration in Systemic Plasma): 16.7 µg/mL
- concentration at 4 h ([3]; dog, systemic plasma, 100 mg/kg, Dog 2, read-out: Concentration in Systemic Plasma): 81.5 µg/mL
- concentration at 4 h ([3]; dog, systemic plasma, 100 mg/kg, Dog 3, read-out: Concentration in Systemic Plasma): 115 µg/mL
- concentration at 4 h ([3]; dog, systemic plasma, 100 mg/kg, Mean, read-out: Concentration in Systemic Plasma): 71.1 µg/mL
- Concentration in Bile ([3]; Dog 1): 26,400,000 ng/mL
- Concentration in Bile ([3]; Dog 2): 10,400,000 ng/mL
- Concentration in Bile ([3]; Dog 3): 15,500,000 ng/mL
- Concentration in Bile ([3]; Mean): 17,400,000 ng/mL
- Kp at 4 h ([3]; bile versus plasma, oral, 100 mg/kg, dog, 4 h post-dose, read-out: concentration in bile higher than in plasma): ~250
- concentration in bile higher than in liver ([3]; dog, 4 h post-dose): ~80 ×
- Kp at 4 h ([3]; liver versus plasma, oral, dog, 4 h, 100 mg/kg, read-out: liver to plasma ratio): 3.1
- Kp at 24 h ([3]; liver versus plasma, oral, dog, 24 h, 100 mg/kg, read-out: liver to plasma ratio): 267
